Data published in PMC9917099, “The Mycotoxin Patulin Inhibits the Mitochondrial Carnitine/Acylcarnitine Carrier (SLC25A20) by Interaction with Cys136 Implications for Human Health” (International Journal of Molecular Sciences, 2023).
Numbering of substitutions follows the chain as printed. Several values for one entry are separate records, joined by “and”; a condition that tells them apart may be missing. Identical values can stand only once.

Tests used:
recombinant human WT CAC = biological target: T1, recombinant human WT CAC (Homo sapiens, UniProt O43772); experiment: [3H]-carnitine/carnitine antiport in proteoliposomes with recombinant human WT CAC; assay type: biochemical; details: PAT 30 min, read-out: IC50 of CAC WT inhibition
T1 construct: made in house; host or cells: E. coli C0214 (pMW7, inclusion bodies)
T1 sequence (O43772 1-301): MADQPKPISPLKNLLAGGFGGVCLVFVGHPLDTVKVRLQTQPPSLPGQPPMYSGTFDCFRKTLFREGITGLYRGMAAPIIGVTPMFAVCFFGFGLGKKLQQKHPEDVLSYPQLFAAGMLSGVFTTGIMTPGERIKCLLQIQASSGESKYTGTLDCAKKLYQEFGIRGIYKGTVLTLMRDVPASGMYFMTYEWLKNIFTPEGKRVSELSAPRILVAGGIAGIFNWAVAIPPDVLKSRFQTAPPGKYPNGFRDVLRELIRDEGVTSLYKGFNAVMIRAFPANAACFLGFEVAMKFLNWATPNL
Protocol: (§1) To shed light on the interaction between PAT and CAC and verify if specific Cys residues were involved, transport experiments on the recombinant rat and human WT CAC and CAC’s rat Cys mutants were performed. As in the case of the native protein, transport activities were measured as [^3H]-carnitine/carnitine antiport in proteoliposomes. […] The PAT inhibition of the WT recombinant protein was only slightly greater compared to the native protein, although compounds and other molecular systems that affect the mycotoxin binding to the native CAC were absent (see above). For identifying the residues involved in the PAT interaction, site-directed Cys mutants were tested for inhibition (Figure 2). […]
(§2) Figure 2 Dose-response analysis of the PAT inhibition of the CAC recombinant proteins. […] The data are expressed as a percentage of the controls (no PAT addition) and are means ± SD of three independent experiments. […]
(§3) For the transport assay, 550 μL of proteoliposomes were passed through a Sephadex G-75 column in order to remove the external substrate. […] After finishing the transport reaction, the external radiolabel substrate was removed by gel filtration chromatography (Sephadex G-75), and the intraliposomal radioactivity was measured by liquid scintillation. Transport was measured at 25 °C. […] Transport rates were measured in 10 min, i.e., within the initial linear range of the time course.

[1] = biological target: T2, rat CAC mutant C23V/C58V/C89S/C136V/C283S (Rattus norvegicus, UniProt P97521, C136V/C23V/C283S/C58V/C89S); experiment: Carnitine antiport in proteoliposomes, CAC mutant containing only C155; assay type: biochemical
T2 construct: made in house; host or cells: E. coli C0214 (pMW7, inclusion bodies)
T2 sequence (P97521 1-301 C23V/C58V/C89S/C136V/C283S): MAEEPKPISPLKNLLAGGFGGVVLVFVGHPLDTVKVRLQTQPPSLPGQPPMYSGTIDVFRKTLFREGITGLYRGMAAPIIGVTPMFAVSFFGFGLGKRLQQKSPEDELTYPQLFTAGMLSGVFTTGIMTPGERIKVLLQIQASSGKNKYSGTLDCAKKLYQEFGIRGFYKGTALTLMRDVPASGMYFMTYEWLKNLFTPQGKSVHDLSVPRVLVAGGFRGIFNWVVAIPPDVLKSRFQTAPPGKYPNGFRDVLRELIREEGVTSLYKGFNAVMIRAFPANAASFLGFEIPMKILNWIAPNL
Protocol: as §1, §2, §3

rat CAC mutant C155S = biological target: T3, rat CAC mutant C155S (Rattus norvegicus, UniProt P97521, C155S); experiment: Carnitine antiport in proteoliposomes, CAC mutant C155S; assay type: biochemical
T3 construct: made in house; host or cells: E. coli C0214 (pMW7, inclusion bodies)
T3 sequence (P97521 1-301 C155S): T2 sequence (P97521 1-301 C23V/C58V/C89S/C136V/C283S) with V23C, V58C, S89C, V136C, C155S, S283C
Protocol: as §1, §2, §3

[2] = biological target: T4, rat CAC C-less mutant (C23V/C58V/C89S/C136V/C155V/C283S) (Rattus norvegicus, UniProt P97521, C136V/C155V/C23V/C283S/C58V/C89S); experiment: Carnitine antiport in proteoliposomes, C-less CAC mutant; assay type: biochemical
T4 construct: made in house; host or cells: E. coli C0214 (pMW7, inclusion bodies)
T4 sequence (P97521 1-301 C23V/C58V/C89S/C136V/C155V/C283S): T2 sequence (P97521 1-301 C23V/C58V/C89S/C136V/C283S) with C155V
Protocol: To shed light on the interaction between PAT and CAC and verify if specific Cys residues were involved, transport experiments on the recombinant rat and human WT CAC and CAC’s rat Cys mutants were performed. As in the case of the native protein, transport activities were measured as [^3H]-carnitine/carnitine antiport in proteoliposomes. […] The PAT inhibition of the WT recombinant protein was only slightly greater compared to the native protein, although compounds and other molecular systems that affect the mycotoxin binding to the native CAC were absent (see above). For identifying the residues involved in the PAT interaction, site-directed Cys mutants were tested for inhibition (Figure 2). […] The choice of this last mutant was due to the proximity of C155 to C136 during some steps of the substrate translocation mechanism. […]
as §3

cell viability = tested on: cell viability; design: method as in PMID 25098256; details: 60 µM; cited from earlier work

With `O=C1C=C2C(=CCOC2O)O1` (centres unmarked) [PAT, 4-hydroxy-4H-furo [3,2c] pyran-2 [6H] -one] the IC50 (recombinant human WT CAC) was 50 µM and ~50 µM, the IC50 [1] was “not possible to detect” and the IC50 (rat CAC mutant C155S) was “comparable to the WT”. For the same molecule, the “effect on transport activity” value [2] was “no effect” and the “toxicity for cell viability” value (cell viability) was “nontoxic range”.
